Among the data in ChEMBL document CHEMBL1144161, “ortho-dihydroxyisoflavone derivatives from aged Doenjang (Korean fermented soypaste) and its radical scavenging activity” (Bioorg Med Chem Lett, 2008) are IC50 values, retold here.

pIC50: −log10 of the molar value.

Test [1] addresses T1, Xanthine dehydrogenase/oxidase (Homo sapiens, UniProt P47989). Kind of test: Inhibition of xanthine oxidase assessed as decrease of uric acid generation.
Test [2] concerns the target T1, Xanthine dehydrogenase/oxidase. As to the kind of experiment: Inhibition of xanthine oxidase assessed as decrease of superoxide generation.
Test [3] relates to Radical scavenging activity. As to the kind of experiment: Antioxidant activity assessed as DPPH radical scavenging activity after 30 mins. In kind it is functional. In general terms: The DPPH test is a chemical assay of radical scavenging.

T1 sequence (P47989 whole entry): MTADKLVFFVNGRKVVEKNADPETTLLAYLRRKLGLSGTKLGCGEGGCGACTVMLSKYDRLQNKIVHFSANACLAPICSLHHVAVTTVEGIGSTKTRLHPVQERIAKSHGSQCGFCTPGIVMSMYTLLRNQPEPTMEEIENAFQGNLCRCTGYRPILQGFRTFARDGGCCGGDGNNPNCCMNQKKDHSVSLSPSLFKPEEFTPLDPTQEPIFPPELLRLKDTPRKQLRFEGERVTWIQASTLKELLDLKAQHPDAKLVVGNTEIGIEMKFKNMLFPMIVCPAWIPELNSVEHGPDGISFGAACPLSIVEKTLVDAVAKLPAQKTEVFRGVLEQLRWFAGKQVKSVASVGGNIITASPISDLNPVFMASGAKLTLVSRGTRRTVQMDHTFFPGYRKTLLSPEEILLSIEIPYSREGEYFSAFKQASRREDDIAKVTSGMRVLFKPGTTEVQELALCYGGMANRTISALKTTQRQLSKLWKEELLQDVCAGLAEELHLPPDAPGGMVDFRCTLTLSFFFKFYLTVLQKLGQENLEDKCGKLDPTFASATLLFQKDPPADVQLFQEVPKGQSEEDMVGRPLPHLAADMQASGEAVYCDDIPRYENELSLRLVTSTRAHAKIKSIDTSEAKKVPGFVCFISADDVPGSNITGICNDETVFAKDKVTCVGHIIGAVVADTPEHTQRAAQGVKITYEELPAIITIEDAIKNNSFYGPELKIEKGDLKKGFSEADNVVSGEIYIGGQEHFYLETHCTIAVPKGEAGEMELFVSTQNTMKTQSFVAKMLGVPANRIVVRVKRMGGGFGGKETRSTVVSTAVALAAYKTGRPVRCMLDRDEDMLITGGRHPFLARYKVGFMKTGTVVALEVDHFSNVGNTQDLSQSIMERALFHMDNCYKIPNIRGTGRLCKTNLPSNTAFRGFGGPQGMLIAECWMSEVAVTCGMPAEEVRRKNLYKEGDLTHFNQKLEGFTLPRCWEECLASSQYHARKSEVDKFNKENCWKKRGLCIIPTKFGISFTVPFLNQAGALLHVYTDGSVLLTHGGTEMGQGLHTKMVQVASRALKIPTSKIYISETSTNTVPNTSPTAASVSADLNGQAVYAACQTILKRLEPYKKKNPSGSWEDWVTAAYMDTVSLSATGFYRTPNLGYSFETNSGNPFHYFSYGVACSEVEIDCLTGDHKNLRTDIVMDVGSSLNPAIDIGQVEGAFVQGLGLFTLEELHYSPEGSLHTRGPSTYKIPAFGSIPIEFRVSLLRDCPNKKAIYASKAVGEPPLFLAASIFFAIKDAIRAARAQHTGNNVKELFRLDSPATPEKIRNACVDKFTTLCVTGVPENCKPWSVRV

Take `O=c1c(-c2ccc(O)cc2)coc2cc(O)cc(O)c12` [GENISTEIN]: the values for the pIC50 in test [1] and in test [2] were less than 3.00 and 3.63, respectively.
Turning to `O=c1c(-c2ccc(O)cc2)coc2cc(O)c(O)cc12`, the pIC50 was 4.49 in test [3], less than 3.00 in test [1] and less than 3.00 in test [2].
`O=c1c(-c2ccc(O)c(O)c2)coc2cc(O)ccc12`: the values for the negative logarithm of the IC50 (pIC50) in test [3], in test [1] and in test [2] were 4.54, less than 3.00 and 4.77, respectively.
On to `Cc1c(C)c2c(c(C)c1O)CCC(C)(C(=O)O)O2` (configuration not stated) [TROLOX], for which, in test [3], the pIC50 was 4.31.
Turning to `O=c1c(-c2ccc(O)cc2)coc2cc(O)ccc12` [DAIDZEIN], the pIC50 was less than 3.00 in test [1] and 3.37 in test [2].
For `O=C1O[C@H]([C@@H](O)CO)C(O)=C1O` [ASCORBIC ACID], the pIC50 in test [3] is 4.28.
In the case of `COc1cc2c(=O)c(-c3ccc(O)cc3)coc2cc1O` [GLYCITEIN], the figures for the pIC50 in test [1] and in test [2] were less than 3.00 and 3.17, respectively.
On to `O=c1c(-c2ccc(O)cc2)coc2c(O)c(O)ccc12`, for which the pIC50 in test [3] was 4.67; in test [1] it was less than 3.00; in test [2] it was 5.18.

As usually defined, the pIC50 is −log10 of the IC50, conventionally taken in molar units.
